# Laboratory results as given in patent US20200140446A1, “5,8-DIMETHYL-2-[2-(1-METHYL-4-PHENYL-1H-IMIDAZOL-2-YL)-ETHYL]-[1,2,4]TRIAZOLO[1,5-A]PYRAZINE HEMIADIPATE” (H. Lundbeck A/S, priority 2018, published 2020).
# Marks after values point to notes of the source that are not given here.
# Legend:
# [1] = Dynamic Vapour Sorption (DVS), hygroscopicity; assay type: physicochemical; conditions: for Hygroscopic (Yes/No): summary of solid forms of Compound (I), Table 2; for hygroscopicity (DVS conclusion): RH 0% to 95%, 25° C.
# Source text: The vapour sorption can be investigated by DVS analysis.
# The vapour sorption was investigated by DVS analysis.
# [2] = Hydrate formation (precipitation from water / storage at 95% RH, XRPD); assay type: physicochemical; conditions: for Hydrate formation (Yes/No): summary of solid forms of Compound (I), Table 2
# Source text: To determine whether the Compound (I) hemiadipate are prone to form hydrates it was investigated if precipitation from water equilibrated over 7 days led to a new crystal form. In addition, it was explored if storage of Compound (I) hemiadipate at 95% RH for 5 months led to change in the crystal form.
# [3] = Solvate formation (shake-flask precipitation in organic solvents, XRPD); assay type: physicochemical; conditions: 16 organic solvents, equilibration for 4 days
# Source text: To determine whether the Compound (I) hemiadipate forms solvates it was investigated if solvate formation could be observed from precipitation in different organic solvents after equilibration for 4 days in the shake-flask method: Compound (I) hemiadipate was precipitated in various organic solvents from a 1:1 mixture of Compound (I) and adipic acid. The tested solvents were: acetone, acetonitrile, methanol, ethanol, 1-propanol, 2-propanol, 1-butanol, 2-butanol, ethyl acetate, isopropyl acetate, methyl isobutyl ketone, tetrahydrofuran, diethylether, N-methylpyrrolidone, dichloromethane, and n-heptane.
# [4] = Intrinsic Dissolution Rate (IDR); assay type: physicochemical; conditions: 37° C., 10 mg tablet, duplicates
# Protocol: Tablets of 10 mg Compound (I) (free base or hemiadipate) were pressed and put into a micro dissolution chamber. It was subsequently measured how fast the substance was dissolved from the well-defined surface of the tablet into the solvent. The length of a full dissolution experiment was 20 min and the IDR was calculated in the range 1-2.5 min, determined as the slope of the dissolution profile in that specific range. The experiment at pH 2 was performed in 0.01 N HCl, at pH 5 in 50 mM acetate buffer and at pH 6.8 in 50 mM phosphate buffer, respectively, all at 37° C. All experiments were performed in duplicates.
# Where the tablet was not fully dissolved after end of experiment, the surface was examined by XRPD, to identify if any changes of solid form have occurred during the experiment.
# rats = assay: Conditioned Avoidance Response (CAR) in rats, high dopamine state; assay type: in vivo
# Source text: The inventors of the present invention put forward the hypothesis that many patients with exacerbated positive symptoms can be expected to have increased striatal dopamine levels. Since the dopamine receptors regulate the dopamine signal by controlling cAMP synthesis and PDE10A regulates the gain of this signal by controlling cAMP degradation, the effect of PDE10A inhibition might be altered in conditions with increased striatal dopamine tonus, such as found in patients with prominent positive symptoms. To investigate this further the effect of compounds of the invention were tested in the CAR assay in rats that were co-dosed with a low dose of d-amphetamine (0.20-0.25 mg/kg) to induce a high dopamine state (FIG. 4). […] Compound (I) was tested alone and in combination with a low dose d-amphetamine to induce a high dopamine state. The efficacy was measured as the mean number of avoidances and results are depicted as mean+/−SEM. […] Bars represent the following dose groups (left to right): 1) Vehicle; 2) d-amphetamine (0.2 mg/kg); 3) Compound (I) (0.6 mg/kg); 4) Compound (I) (0.3 mg/kg)+d-amphetamine (0.2 mg/kg); 5) Compound (I) (0.6 mg/kg)+d-amphetamine (0.2 mg/kg); and 6) Compound (I) (3.0 mg/kg)+d-amphetamine (0.2 mg/kg). ** p<0.01 compared to vehicle. ns=non-significant.
Compound,Hygroscopic (Yes/No) [1],Hydrate formation (Yes/No) [2],further results
O=C(O)CCC(=O)C(=O)O [2-oxoglutarate],Yes,Yes,
"Cc1ncc(C)n2nc(CCc3nc(-c4ccccc4)cn3C)nc12 [Compound (I) hemiadipate, 5,8-Dimethyl-2-[2-(1-methyl-4-phenyl-1H-imidazol-2-yl)-ethyl]-[1,2,4]triazolo[1,5-a]pyrazine hemiadipate]",No,No,"vapour sorption ([1]; DVS, 95% RH at 25° C.): less than 0.1%; hygroscopicity (DVS conclusion) ([1]; DVS): non-hygroscopic; change of crystal form after storage at 95% RH ([2]; 95% RH for 5 months, XRPD): had not changed from the original form; change of crystal form after precipitation from water ([2]; water, equilibrated over 7 days, XRPD): had not changed from the original form; solvate formation [3]: does not form solvates; IDR Average ([4]; pH 2, 0.01 N HCl): >2* mg/cm^2 × min; IDR Average ([4]; pH 5, 50 mM acetate buffer): 0.3 mg/cm^2 × min; IDR Average ([4]; pH 6.8, 50 mM phosphate buffer): 0.04 mg/cm^2 × min"
"Cc1ncc(C)n2nc(CCc3nc(-c4ccccc4)cn3C)nc12 [Compound (I), 5,8-Dimethyl-2-[2-(1-methyl-4-phenyl-1H-imidazol-2-yl)-ethyl]-[1,2,4]triazolo[1,5-a]pyrazine]",,,"hygroscopicity (DVS conclusion) ([1]; DVS, listed as free base): very hygroscopic; Hygroscopic (Yes/No) ([1]; listed as Free base): Yes; Hydrate formation (Yes/No) ([2]; listed as Free base): Yes; IDR Average ([4]; pH 2, 0.01 N HCl, listed as Compound (I) free base): 1.45 mg/cm^2 × min; IDR Average ([4]; pH 5, 50 mM acetate buffer, listed as Compound (I) free base): 0.101 mg/cm^2 × min; IDR Average ([4]; pH 6.8, 50 mM phosphate buffer, listed as Compound (I) free base): 0.025 mg/cm^2 × min; effect on CAR (mean number of avoidances), combined with d-amphetamine (rats; Compound (I) 0.3, 0.6, 3.0 mg/kg + d-amphetamine 0.2 mg/kg (high dopamine state)): this effect was abolished; effect on CAR (mean number of avoidances), dosed alone (rats; Compound (I) alone (0.6 mg/kg), ** p<0.01 compared to vehicle): reduced CAR"
Cc1ncc(C)n2nc(CCc3nc(-c4ccccc4)cn3C)nc12.O=C[C@H](O)[C@@H](O)[C@H](O)[C@H](O)C(=O)O [D-glucoronate],Yes,Yes,
O=P(O)(O)O [Dihydrogen Phosphate],,Yes,
Br.Cc1ncc(C)n2nc(CCc3nc(-c4ccccc4)cn3C)nc12 [Hydrogen Bromide],Yes,Yes,
Cl [Hydrogen Chloride],Yes,Yes,
Cc1ncc(C)n2nc(CCc3nc(-c4ccccc4)cn3C)nc12.O=S(=O)(O)O [Hydrogen sulphate],,Yes,
Citrate,Yes,Yes,
Fumarate,,Yes,
Glutarate,,Yes,
L(+)-tartrate,,Yes,
L(−)-malate,Yes,Yes,
Maleate,Yes,Yes,
Malonate,Yes,Yes,
Oxalate,Yes,Yes,
Tosylate,Yes,Yes,
